The nature of series [1]: Intravenous pharmacokinetic study in rats (tail vein; plasma d-amphetamine by LC-MS/MS). It is filed as in vivo, rat. The following applies: for AUC0-2 hr / Cmax / Tmax: d-amphetamine in plasma, rat, intravenous (tail vein), 5.6 μmol/kg, sampled to 2 hours. How it is done:
Conjugates of d-amphetamine, and d-amphetamine sulfate or lisdexamfetamine dimesylate comparator compound were dissolved in an appropriate vehicle and administered in rats at doses of 5.6 μmol/kg by injecting the solution into the tail vein. Whole blood samples were collected via retro-orbital bleeding at 5 minutes and at 0.25, 0.5, 1 and 2 hours postdose. Blood samples were centrifuged and the resulting plasma samples were collected for analysis of […] concentrations by LC-MS/MS.

Series [2] is described as follows: Oral pharmacokinetic study in rats (plasma amphetamine by LC-MS/MS). In kind it is in vivo. The following applies: d-amphetamine in plasma; rat, oral gavage, 5.6 μmol/kg; 6-hour time course. How it is done:
Conjugates of d-amphetamine, and d-amphetamine sulfate or lisdexamfetamine dimesylate comparator compound were dissolved in an appropriate vehicle and administered in rats via oral gavage at doses of 5.6 μmol/kg. Whole blood samples were collected via retro-orbital bleeding at 0.25, 0.5, 1, 2, 4, and optionally at 3 and 6 hours postdose. Blood samples were centrifuged and the resulting plasma samples were collected for analysis of amphetamine concentrations by LC-MS/MS.

Series [3] in a line: Intranasal pharmacokinetic study in rats (plasma amphetamine by LC-MS/MS). In kind it is in vivo. The following applies: d-amphetamine in plasma, rat, 4-hour time course.

What is called melting point is the temperature of the solid-liquid transition. Consider `C[C@@H](Cc1ccccc1)NC(=O)OC[n+]1ccc(C(=O)O)cc1` [AMP-CO2CH2-isonicotinate, d-amphetamine-CO2CH2-isonicotinate], for which the melting point lay within 168 to 170 °C.

By Cmax is commonly meant the highest concentration seen after dosing. The term Tmax denotes the time from dosing to the highest level. For the compound `CCOC(=O)C(C)NC(=O)c1cc[n+](COC(=O)N[C@@H](C)Cc2ccccc2)cc1` (stereo partly drawn) [AMP-CO2CH2-isonicotinoyl-Ala-OEt, d-amphetamine-CO2CH2-isonicotinoyl-alanine ethyl ester], in series [1], the AUC0-2 hr worked out at 32.4 ng·h/mL, the Cmax was 24.7 ng/mL and the time to peak (Tmax) stood at 31.2 min. Moreover, in series [2], the AUC0-4 hr was 72.8 ng·h/mL, the AUC0-6 hr is 105.7 ng·h/mL, the Cmax was determined as 28.5 ng/mL and the time to peak (Tmax) came out at 120 min.

Turning to `CC(C)[C@H](NC(=O)c1cc[n+](COC(=O)N[C@@H](C)Cc2ccccc2)cc1)C(N)=O` [AMP-CO2CH2-isonicotinoyl-Val-NH2, d-amphetamine-CO2CH2-isonicotinoyl-valinamide], the “exposure to d-amphetamine after intravenous administration compared to the nicotinoyl analogue” value in series [1] (intravenous, compared to AMP-CO2CH2-nicotinoyl-Val-NH2, FIG. 32) was “decreases exposure to d-amphetamine”.

“d-amphetamine-CO2CH2-isonicotinate ethyl ester [AMP-CO2CH2-isonicotinate(Et)]”: in series [3], the AUC0-1 hr stood at 8.6 ng·h/mL, the AUC0-4 hr turned out to be 32.6 ng·h/mL, the Cmax is 11.1 ng/mL and the time of peak concentration (Tmax) was determined as 37.8 min. Besides, in series [1], the AUC0-2 hr stood at 26.5 ng·h/mL, the highest concentration (Cmax) is 18.8 ng/mL and the time to peak (Tmax) worked out at 43.2 min. In series [2], the AUC0-4 hr is 75.4 ng·h/mL, the AUC0-6 hr is 106.6 ng·h/mL, the Cmax came to 26.0 ng/mL and the time to peak (Tmax) was 90 min.

(Values after patent US11136295B2, “D-amphetamine compounds, compositions, and processes for making and using the same” (KemPharm, Inc., priority 2018, dated 2021).)
